In brackets after ≈: the same amount, converted by molar mass. Like-named read-outs stand apart in the source and are kept apart here.
Columns and labels:
Format in all cases: cell-based
[1] = tested on: Enterobacter cloacae species complex; assay: Broth microdilution MIC (CLSI), Enterobacter cloacae; settings: Enterobacter cloacae, read-out: MIC
Description: (§1) Bacterial isolates were subjected to broth microdilution susceptibility testing, performed according to Clinical and Laboratory Standards Institute (CLSI) methods ([46]), using panels prepared in-house. Meropenem was purchased from Sandoz, and all other antibiotics were from Sigma-Aldrich. Xeruborbactam was synthesized at Qpex Biopharma, San Diego, CA. Avibactam was purchased from eNovation Chemicals LLC, Bridgewater, NJ, USA; zidebactam was from MedKoo Biosciences, Inc., Morrisville, NC, and nacubactam was from Advanced ChemBlocks, Hayward, CA. Durlobactam was synthesized at Acme Bioscience, Palo Alto, CA, USA.

Escherichia coli = assay: Broth microdilution MIC (CLSI), Escherichia coli; settings: Escherichia coli, read-out: MIC
Description: (§2) (i) Panels of engineered bacterial strains containing various combinations of porin and efflux mutations were used. The construction of all the strains used in the study is described in detail in references, [44], and [45]. (ii) KPC-producing clinical isolates and their derivatives that lost KPC plasmids were used also. These strains and their origins are described in the Table S2. (iii) Finally, KPC-producing clinical isolates enriched in strains with porin mutations were used. The mutations identified include various deletions, insertions, nonsense mutations, and decreased expression. Most of the isolates were obtained from JMI Laboratories or International Health Management Associates (IHMA); they were collected in the course of global surveillance studies.
(§3) Bacterial isolates were subjected to broth microdilution susceptibility testing, performed according to Clinical and Laboratory Standards Institute (CLSI) methods ([46]), using panels prepared in-house. […] Xeruborbactam was synthesized at Qpex Biopharma, San Diego, CA. Avibactam was purchased from eNovation Chemicals LLC, Bridgewater, NJ, USA; zidebactam was from MedKoo Biosciences, Inc., Morrisville, NC, and nacubactam was from Advanced ChemBlocks, Hayward, CA. Durlobactam was synthesized at Acme Bioscience, Palo Alto, CA, USA.

Klebsiella pneumoniae = assay: microbe, parasite or virus in culture; settings: Klebsiella pneumoniae, read-out: MIC
Description: as §2, §3

Enterococcus faecalis = assay: MIC, Enterococcus faecalis
Description: as §1

Staphylococcus aureus = assay: MIC, Staphylococcus aureus (MSSA, MRSA)
Description: as §1

Streptococcus pneumoniae = assay: MIC, Streptococcus pneumoniae; settings: Streptococcus pneumoniae, read-out: MIC
Description: as §1

`CN(C)c1cc(NC(=O)CNC(C)(C)C)c(O)c2c1C[C@H]1C[C@H]3[C@H](N(C)C)C(O)=C(C(N)=O)C(=O)[C@@]3(O)C(O)=C1C2=O` [Tigecycline] was tested, and the MIC ([1]; clinical isolate ECL1057, OmpK35 FN, OmpK36 NF) was 8 µg/mL (≈ 13.7 µM), the MIC ([1]; clinical isolate ECL1079, OmpK35 NF, OmpK36 NF) was 4 µg/mL (≈ 6.83 µM) and the MIC ([1]; clinical isolate ECL1126, OmpK35 FN, OmpK36 FN) was 2 µg/mL (≈ 3.41 µM). The MIC ([1]; clinical isolate ECL1131, OmpK35 NF, OmpK36 FN) was 2 µg/mL (≈ 3.41 µM), the MIC (Escherichia coli; clinical isolate EC1078, OmpK35 NF, OmpK36 NF) was 0.5 µg/mL and the MIC (Escherichia coli; clinical isolate EC1081, OmpK35 FN, OmpK36 FN) was 0.5 µg/mL. For the same molecule, the MIC (Escherichia coli; clinical isolate EC1085, OmpK35 FN, OmpK36 FN) was 0.25 µg/mL, the MIC (Escherichia coli; clinical isolate EC1088, OmpK35 FN, OmpK36 FN) was 0.125 µg/mL and the MIC (Escherichia coli; clinical isolate EC1097, OmpK35 FN, OmpK36 FN) was 1 µg/mL. For the same molecule, the MIC (Escherichia coli; clinical isolate EC1098, OmpK35 NF, OmpK36 FN) was 1 µg/mL, the MIC (Escherichia coli; clinical isolate EC1119, OmpK35 NF, OmpK36 NF) was 4 µg/mL and the MIC (Escherichia coli; clinical isolate EC1121, OmpK35 NF, OmpK36 FN) was 0.25 µg/mL. For the same molecule, the MIC (Klebsiella pneumoniae; clinical isolate KP1004, OmpK35 NF, OmpK36 FN) was 1 µg/mL, the MIC (Klebsiella pneumoniae; clinical isolate KP1070, OmpK35 NF, OmpK36 FN) was 1 µg/mL and the MIC (Klebsiella pneumoniae; clinical isolate KP1074, OmpK35 NF, OmpK36 PFN (GD)) was 0.5 µg/mL. It also gave an MIC (Klebsiella pneumoniae; clinical isolate KP1093, OmpK35 NF, OmpK36 PFN (GD)) of 1 µg/mL, an MIC (Klebsiella pneumoniae; clinical isolate KP1251, OmpK35 NF, OmpK36 FN) of 1 µg/mL and an MIC (Klebsiella pneumoniae; clinical isolate KP1274, OmpK35 FN, OmpK36 FN) of 1 µg/mL. The MIC (Klebsiella pneumoniae; clinical isolate KP1463, OmpK35 NF, OmpK36 NF) was 1 µg/mL, the MIC (Klebsiella pneumoniae; clinical isolate KP1469, OmpK35 NF, OmpK36 NF) was 4 µg/mL and the MIC (Klebsiella pneumoniae; clinical isolate KP1598, OmpK35 NF, OmpK36 PFN (GD)) was 4 µg/mL.
In the case of `C[C@H]1COc2c(N3CCN(C)CC3)c(F)cc3c(=O)c(C(=O)O)cn1c23` [Levofloxacin], the MIC (Enterococcus faecalis; efs003) is reported as 0.5 µg/mL (≈ 1.38 µM), the MIC (Enterococcus faecalis; efs004) is reported as 1 µg/mL (≈ 2.77 µM) and the MIC (Enterococcus faecalis; efs005) is reported as 1 µg/mL (≈ 2.77 µM). It also gave an MIC (Enterococcus faecalis; efs006) of 1 µg/mL (≈ 2.77 µM), an MIC (Enterococcus faecalis; efs007) of 1 µg/mL (≈ 2.77 µM) and an MIC (Enterococcus faecalis; efs026) of 0.5 µg/mL (≈ 1.38 µM). For the same molecule, the MIC (Enterococcus faecalis; efs071) was 32 µg/mL (≈ 88.6 µM), the MIC (Enterococcus faecalis; efs072) was 16 µg/mL (≈ 44.3 µM) and the MIC (Enterococcus faecalis; efs073) was 1 µg/mL (≈ 2.77 µM). It also gave an MIC (Enterococcus faecalis; efs090) of 32 µg/mL (≈ 88.6 µM), an MIC (Enterococcus faecalis; efs091) of 32 µg/mL (≈ 88.6 µM) and an MIC (Enterococcus faecalis; efs092) of 32 µg/mL (≈ 88.6 µM). It also gave an MIC (Enterococcus faecalis; efs093) of 16 µg/mL (≈ 44.3 µM), an MIC (Enterococcus faecalis; efs094) of 32 µg/mL (≈ 88.6 µM) and an MIC (Enterococcus faecalis; efs095) of 2 µg/mL (≈ 5.53 µM). For the same molecule, the MIC (Enterococcus faecalis; efs096) was 32 µg/mL (≈ 88.6 µM), the MIC (Klebsiella pneumoniae; strain KPM1026a) was 0.06 µg/mL and the MIC (Staphylococcus aureus; Staphylococcus aureus, ATCC 29213 / MSSA) was 0.125 µg/mL (≈ 0.346 µM). The MIC (Staphylococcus aureus; Staphylococcus aureus, MRSA) was 0.125 µg/mL (≈ 0.346 µM), the MIC (Staphylococcus aureus; Staphylococcus aureus, MRSA, sa001, MRSA, read-out: MIC) was 8 µg/mL (≈ 22.1 µM) and the MIC (Staphylococcus aureus; Staphylococcus aureus, MRSA, sa010, MRSA, read-out: MIC) was 8 µg/mL (≈ 22.1 µM). It also gave an MIC (Staphylococcus aureus; Staphylococcus aureus, MRSA, sa013, MRSA, read-out: MIC) of 0.25 µg/mL (≈ 0.692 µM), an MIC (Staphylococcus aureus; Staphylococcus aureus, MRSA, sa148, MRSA, read-out: MIC) of 16 µg/mL (≈ 44.3 µM) and an MIC (Staphylococcus aureus; Staphylococcus aureus, MRSA, sa150, MRSA, read-out: MIC) of 8 µg/mL (≈ 22.1 µM). It also gave an MIC (Staphylococcus aureus; Staphylococcus aureus, MRSA, sa151, MRSA, read-out: MIC) of 16 µg/mL (≈ 44.3 µM), an MIC (Staphylococcus aureus; Staphylococcus aureus, MRSA, sa153, MRSA, read-out: MIC) of 16 µg/mL (≈ 44.3 µM) and an MIC (Staphylococcus aureus; Staphylococcus aureus, MRSA, sa278, MRSA, read-out: MIC) of 32 µg/mL (≈ 88.6 µM). It also gave an MIC (Staphylococcus aureus; Staphylococcus aureus, MRSA, sa279, MRSA, read-out: MIC) of 2 µg/mL (≈ 5.53 µM), an MIC (Staphylococcus aureus; Staphylococcus aureus, MRSA, sa280, MRSA, read-out: MIC) of 2 µg/mL (≈ 5.53 µM) and an MIC (Staphylococcus aureus; Staphylococcus aureus, MRSA, sa281, MRSA, read-out: MIC) of 32 µg/mL (≈ 88.6 µM). The MIC (Staphylococcus aureus; Staphylococcus aureus, MSSA) was 0.125 µg/mL (≈ 0.346 µM), the MIC (Staphylococcus aureus; Staphylococcus aureus, MSSA, sa006, MSSA, read-out: MIC) was 0.06 µg/mL (≈ 0.166 µM) and the MIC (Staphylococcus aureus; Staphylococcus aureus, MSSA, sa008, MSSA, read-out: MIC) was 0.25 µg/mL (≈ 0.692 µM). For the same molecule, the MIC (Staphylococcus aureus; Staphylococcus aureus, MSSA, sa011, MSSA, read-out: MIC) was 0.25 µg/mL (≈ 0.692 µM), the MIC (Staphylococcus aureus; Staphylococcus aureus, MSSA, sa012, MSSA, read-out: MIC) was 0.25 µg/mL (≈ 0.692 µM) and the MIC (Staphylococcus aureus; sa002, MSSA) was 0.125 µg/mL (≈ 0.346 µM). For the same molecule, the MIC (Staphylococcus aureus; sa003, MSSA) was 0.125 µg/mL (≈ 0.346 µM), the MIC (Staphylococcus aureus; sa004, MSSA) was 0.125 µg/mL (≈ 0.346 µM) and the MIC (Staphylococcus aureus; sa005, MSSA) was 0.125 µg/mL (≈ 0.346 µM). It also gave an MIC (Staphylococcus aureus; sa007, MSSA) of 0.125 µg/mL (≈ 0.346 µM), an MIC (Staphylococcus aureus; sa009, MSSA) of 0.125 µg/mL (≈ 0.346 µM) and an MIC (Staphylococcus aureus; sa152, MRSA) of 0.125 µg/mL (≈ 0.346 µM). For the same molecule, the MIC (Streptococcus pneumoniae; sp001) was 0.5 µg/mL (≈ 1.38 µM), the MIC (Streptococcus pneumoniae; sp002) was 0.5 µg/mL (≈ 1.38 µM) and the MIC (Streptococcus pneumoniae; sp003) was 1 µg/mL (≈ 2.77 µM). It also gave an MIC (Streptococcus pneumoniae; sp004) of 1 µg/mL (≈ 2.77 µM), an MIC (Streptococcus pneumoniae; sp005) of 0.5 µg/mL (≈ 1.38 µM) and an MIC (Streptococcus pneumoniae; sp006) of 0.5 µg/mL (≈ 1.38 µM). It also gave an MIC (Streptococcus pneumoniae; sp007) of 1 µg/mL (≈ 2.77 µM), an MIC (Streptococcus pneumoniae; sp008) of 0.5 µg/mL (≈ 1.38 µM) and an MIC (Streptococcus pneumoniae; sp009) of 1 µg/mL (≈ 2.77 µM). It also gave an MIC (Streptococcus pneumoniae; sp117) of 2 µg/mL (≈ 5.53 µM), an MIC (Streptococcus pneumoniae; sp118) of 1 µg/mL (≈ 2.77 µM) and an MIC (Streptococcus pneumoniae; sp119) of 1 µg/mL (≈ 2.77 µM). The MIC (Streptococcus pneumoniae; sp120) was 1 µg/mL (≈ 2.77 µM), the MIC (Streptococcus pneumoniae; sp121) was 1 µg/mL (≈ 2.77 µM) and the MIC (Streptococcus pneumoniae; sp122) was 32 µg/mL (≈ 88.6 µM). For the same molecule, the MIC (Streptococcus pneumoniae; sp123) was 0.5 µg/mL (≈ 1.38 µM), the MIC (Streptococcus pneumoniae; sp125) was 1 µg/mL (≈ 2.77 µM) and the MIC (Streptococcus pneumoniae; sp126) was 1 µg/mL (≈ 2.77 µM).
